Experimental findings from patent publication US12624017B2, “Salt form of isoquinolinone type compound as rock inhibitor and preparation method therefor” (GUANGZHOU OCUSUN OPHTHALMIC BIOTECHNOLOGY CO., LTD., priority 2020, dated 2026) are described below.

A short description of series [1]: Toxicokinetic test: active compound in plasma after 14 days of eye drops. It counts as in vivo, New Zealand white rabbits. Conditions: for Concentration of active compound in plasma: 8.0 mg/ml eye drops, after 14 days of consecutive administration. On the procedure:
The rate of production of active pharmaceutical ingredients in plasma and exposure amount of the active pharmaceutical ingredients were detected after 14 days.
(§1) Male New Zealand white rabbits, aged 3 to 6 months, weighted 2.0 to 5.0 kg, purchased from Pizhou Oriental Breeding Co., Ltd.
After 14 days of consecutive administration, blood samples were collected at 0 hours (before administration) and at 0.5, 1, 2, 4, 8 and 24 hours after administration in the group of compound of formula (I) (8.0 mg/ml) at 14-15 days. Approximately 0.8 mL of whole blood was collected from the ear artery or the hindlimb saphenous vein (or other suitable site) of animal subjected to the toxicokinetic test and placed in a labeled blood collection tube with dipotassium EDTA (K2EDTA) as an anticoagulant. Plasma was obtained by centrifugation at 3000 rpm and 2° C. to 8° C. for 10 min within 60 minutes after blood collection. All samples were quantitatively detected for the content of the administrated compound in the plasma of the experimental animal by a liquid chromatography-mass spectrometry coupling technology.

The nature of series [2]: Pharmacokinetic test in aqueous humor after eye drops. It counts as in vivo, New Zealand white rabbits. Particulars: eye drops 0.5 mg/eye.
Text: The compound was a prodrug molecule containing an ester functional group, which can be hydrolyzed into an active drug molecule (parent drug) under the action of abundant ester hydrolase in the eye tissue when administered with eye drops. In this experiment, the production rate of the active pharmaceutical ingredients in vivo and the exposure amount of the active pharmaceutical ingredients were detected.
as §1
The used solvent was 1.2% hydroxypropyl methylcellulose E5/20.5% poloxamer P407/1.6% poloxamer P188.
The dosage of eye drops was 0.5 mg/eye, administrated in both eyes. Aqueous humor samples were collected at 0.25 h, 0.5 h, 2 h, 4 h, 8 h, and 24 h after administration. All samples were quantitatively detected by liquid chromatography coupled with mass spectrometry-mass spectrometry in the aqueous humor of the experimental animals. The measured concentration values were calculated by WinNonlin non-compartment model according to the concentration-time data of aqueous humor, such as half-life, peak concentration, peak time, unit exposure amount of aqueous humor, etc.

Take `Cc1ccc(C(=O)OCn2cc(C)c3c(S(=O)(=O)N4CC[C@H](N)C4)cccc3c2=O)c(C)c1` [Compound of formula (I)]: the “Concentration of active compound in plasma” value is given as “BQL” in series [1] (Group 1, 0.00 h (before administration)); “BQL” in series [1] (Group 1, 8.00 h); “below the detection limit” in series [1] (Group 1, 8.00 h, listed as compound of formula (I)); “BQL” in series [1] (Group 1, 24.0 h); “BQL” in series [1] (Group 2, 0.00 h (before administration)); “BQL” in series [1] (Group 2, 8.00 h). In addition, in series [1] (Group 2, 24.0 h), the “Concentration of active compound in plasma” value is “BQL”. Further, the “System safety (conclusion)” value in series [1] (high dose of 8 mg/mL, from plasma metabolite concentration) is on record as “high system safety”. The “Exposure amount of the active drug (conclusion)” value in series [2] is reported as “significantly increased”.
